Measurements: ChEMBL document CHEMBL3784933, “Synthesis and antitumor evaluation of trimethoxyanilides based on 4(3H)-quinazolinone scaffolds” (2016)

Columns and labels:
Assay type in all cases: functional
[1] = Cytotoxicity against human SNB75 cells assessed as growth inhibition at 10 uM after 48 hrs by SRB assay; details: SNB-75, 48 h, read-out: GI
[2] = Cytotoxicity against human UACC62 cells assessed as growth inhibition at 10 uM after 48 hrs by SRB assay; details: UACC-62, 48 h, read-out: GI
CCRF-CEM = assay: Cytotoxicity against human CCRF-CEM cells assessed as growth inhibition at 10 uM after 48 hrs by SRB assay; details: read-out: GI
[3] = Cytotoxicity against human Hs 578T cells assessed as growth inhibition at 10 uM after 48 hrs by SRB assay; details: read-out: GI
SK-MEL-5 = assay: Cytotoxicity against human SK-MEL-5 cells assessed as growth inhibition at 10 uM after 48 hrs by SRB assay; details: SK-MEL-5, 48 h, read-out: GI
[4] = Cytotoxicity against human SNB19 cells assessed as growth inhibition at 10 uM after 48 hrs by SRB assay; details: SNB-19, 48 h, read-out: GI
A498 = assay: Cytotoxicity against human A498 cells assessed as growth inhibition at 10 uM after 48 hrs by SRB assay; details: A498, 48 h, read-out: GI
[5] = Cytotoxicity against human PC3 cells assessed as growth inhibition at 10 uM after 48 hrs by SRB assay; details: PC-3, 48 h, read-out: GI
[6] = Cytotoxicity against human BT549 cells assessed as growth inhibition at 10 uM after 48 hrs by SRB assay; details: BT-549, 48 h, read-out: GI
[7] = Cytotoxicity against human NCI-ADR-RES cells assessed as growth inhibition at 10 uM after 48 hrs by SRB assay; details: read-out: GI
[8] = Cytotoxicity against human OVCAR8 cells assessed as growth inhibition at 10 uM after 48 hrs by SRB assay; details: OVCAR-8, 48 h, read-out: GI
[9] = Cytotoxicity against human OVCAR3 cells assessed as growth inhibition at 10 uM after 48 hrs by SRB assay; details: OVCAR-3, 48 h, read-out: GI
[10] = Cytotoxicity against human UACC257 cells assessed as growth inhibition at 10 uM after 48 hrs by SRB assay; details: UACC-257, 48 h, read-out: GI
A549 = assay: Cytotoxicity against human A549 cells assessed as growth inhibition at 10 uM after 48 hrs by SRB assay; details: A549, 48 h, read-out: GI
[11] = Cytotoxicity against human SF539 cells assessed as growth inhibition at 10 uM after 48 hrs by SRB assay; details: SF-539, 48 h, read-out: GI
[12] = Cytotoxicity against human UO31 cells assessed as growth inhibition at 10 uM after 48 hrs by SRB assay; details: UO-31, 48 h, read-out: GI
M14 = assay: Cytotoxicity against human M14 cells assessed as growth inhibition at 10 uM after 48 hrs by SRB assay; details: M14, 48 h, read-out: GI
SN12C = assay: Cytotoxicity against human SN12C cells assessed as growth inhibition at 10 uM after 48 hrs by SRB assay; details: read-out: GI
NCI-H522 = assay: Cytotoxicity against human NCI-H522 cells assessed as growth inhibition at 10 uM after 48 hrs by SRB assay; details: NCI-H522, 48 h, read-out: GI
[13] = Cytotoxicity against human SF295 cells assessed as growth inhibition at 10 uM after 48 hrs by SRB assay; details: SF-295, 48 h, read-out: GI
MDA-MB-231 = assay: Cytotoxicity against human MDA-MB-231 cells assessed as growth inhibition at 10 uM after 48 hrs by SRB assay; details: MDA-MB-231, 48 h, read-out: GI
SK-MEL-2 = assay: Cytotoxicity against human SK-MEL-2 cells assessed as growth inhibition at 10 uM after 48 hrs by SRB assay; details: SK-MEL-2, 48 h, read-out: GI
[14] = Cytotoxicity against human SKOV3 cells assessed as growth inhibition at 10 uM after 48 hrs by SRB assay; details: SK-OV-3, 48 h, read-out: GI
Malme-3M = assay: Cytotoxicity against human MALME-3M cells assessed as growth inhibition at 10 uM after 48 hrs by SRB assay; details: read-out: GI
[15] = Cytotoxicity against human SF268 cells assessed as growth inhibition at 10 uM after 48 hrs by SRB assay; details: SF-268, 48 h, read-out: GI
U-251 = assay: Cytotoxicity against human U251 cells assessed as growth inhibition at 10 uM after 48 hrs by SRB assay; details: U-251, 48 h, read-out: GI
T47D = assay: Cytotoxicity against human T47D cells assessed as growth inhibition at 10 uM after 48 hrs by SRB assay; details: read-out: GI
[16] = Cytotoxicity against human HOP92 cells assessed as growth inhibition at 10 uM after 48 hrs by SRB assay; details: HOP-92, 48 h, read-out: GI

In the case of `COc1cc2nc(SCC(=O)Nc3cc(OC)c(OC)c(OC)c3)n(-c3ccccc3)c(=O)c2cc1OC`, the inhibition of growth at 10 µM [1] is reported as 20%, the inhibition of growth at 10 µM [2] is reported as 19% and the inhibition of growth at 10 µM (CCRF-CEM) is reported as 18%. For the same compound, the inhibition of growth at 10 µM [3] was 34%, the inhibition of growth at 10 µM (SK-MEL-5) was 10% and the inhibition of growth at 10 µM [4] was 17%. It also gave an inhibition of growth at 10 µM (A498) of 28%, an inhibition of growth at 10 µM [5] of 17% and an inhibition of growth at 10 µM [6] of 13%. It also gave an inhibition of growth at 10 µM [7] of 10%, an inhibition of growth at 10 µM [8] of 40% and an inhibition of growth at 10 µM [9] of 12%. The inhibition of growth at 10 µM [10] was 26%, the inhibition of growth at 10 µM (A549) was 14% and the inhibition of growth at 10 µM [11] was 17%. The inhibition of growth at 10 µM [12] was 34%, the inhibition of growth at 10 µM (M14) was 15% and the inhibition of growth at 10 µM (SN12C) was 11%. It also gave an inhibition of growth at 10 µM (NCI-H522) of 52%, an inhibition of growth at 10 µM [13] of 11% and an inhibition of growth at 10 µM (MDA-MB-231) of 16%. It also gave an inhibition of growth at 10 µM (SK-MEL-2) of 22%, an inhibition of growth at 10 µM [14] of 12% and an inhibition of growth at 10 µM (Malme-3M) of 20%. It also gave an inhibition of growth at 10 µM [15] of 19%, an inhibition of growth at 10 µM (U-251) of 30% and an inhibition of growth at 10 µM (T47D) of 15%. The inhibition of growth at 10 µM [16] was 32%.
